Assay results as given in patent US11091509B2, “HPPK inhibitors useful as antibacterial agents” (priority 2016, dated 2021).
pKd: −log10 of the molar value. Like-named read-outs stand apart in the source and are kept apart here.

Biological target: HPPK (Escherichia coli, UniProt P26281)
Experiment: HPPK binding study by fluorometric titration (Kd)
Conditions: for affinity compared with previously known HPPK inhibitors: comparison in words
Method: Binding studies were carried out at room temperature. Protein (HPPK) and ligand stock solutions were made in 100 mM Tris-HCl, pH 8.3, and their concentrations were determined spectrophotometrically using the following extinction coefficients: 21600 M^−1 cm^−1 at 280 nm for HPPK and 7124 M^−1 cm^−1 at 380 nm for the tetrahydropteridine bisubstrate inhibitors of Formula I. A 3-mL dilute inhibitor solution in a fluorometric cuvette was titrated with the protein stock solution. Fluorescence was measured on a Horiba Jobin Yvon FluoroMax-4 fluorometer. The excitation wavelength and slit were 364-380 and 2-3 nm, respectively, and the emission wavelength and slit were 450-482 and 2-5 nm, respectively. […] For these HPPK preparations, a control experiment, in which a 3-mL buffer solution was titrated with the protein solution, was performed. The control data was subtracted from the titration data. The corrected titration data was then analyzed by nonlinear least-squares regression using the software Origin and the equation: […]
where Fobs is the observed fluorescence, εf and εb are the fluorescence coefficients of the ligand in the free and protein-bound states, respectively, Lt is the total concentration of the ligand, and Et is the total concentration of HPPK. Lt and Et were varied during the titration process according to the following expressions:
where E0 is the concentration of the HPPK stock solution, L0 is the initial concentration of the ligand, V0 is the initial volume of the titration, and ΔV is the total volume of the added HPPK solution.

[1] = room temperature, 100 mM Tris-HCl pH 8.3, inhibitor titrated with HPPK, fluorescence, nonlinear least-squares analysis, read-out: Kd

Sequence of HPPK (P26281 whole entry): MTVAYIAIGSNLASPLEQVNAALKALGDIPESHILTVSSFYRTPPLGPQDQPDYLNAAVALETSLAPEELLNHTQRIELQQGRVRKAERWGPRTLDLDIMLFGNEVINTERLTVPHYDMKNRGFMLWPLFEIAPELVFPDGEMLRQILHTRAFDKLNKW

Compound | pKd [1] | pKd | affinity compared with previously known HPPK inhibitors
CC1(C)Nc2nc(N)[nH]c(=O)c2N=C1C(=O)NC1CCN(CCSC[C@H]2O[C@@H](n3cnc4c(N)ncnc43)[C@H](O)[C@@H]2O)CC1 [Compound 101, 2-amino-N-(1-(2-((((2S,3S,4R,5R)-5-(6-amino-9H-purin-9-yl)-3,4-dihydroxytetrahydrofuran-2-yl)methyl)thio)ethyl)piperidin-4-yl)-7,7-dimethyl-4-oxo-3,4,7,8-tetrahydropteridine-6-carboxamide] | 4.94 | – | –
CC1(C)Nc2nc(N)[nH]c(=O)c2N=C1C(=O)NCC(=O)N(CC(=O)NC[C@H]1O[C@@H](n2cnc3c(N)ncnc32)C(O)C1O)CP(=O)(O)O (stereo partly shown) [Compound 114] | – | 5.74 | significantly higher
CC1(C)Nc2nc(N)[nH]c(=O)c2N=C1C(=O)NCCN(CC(=O)NC[C@H]1O[C@@H](n2cnc3c(N)ncnc32)C(O)C1O)CP(=O)(O)O (stereo partly shown) [Compound 115] | – | 5.54 | –
CC1(C)Nc2nc(N)[nH]c(=O)c2N=C1C(=O)NCCN(CCSC[C@H]1O[C@@H](n2cnc3c(N)ncnc32)[C@H](O)[C@@H]1O)CP(=O)(O)O [Compound 118, (((2-(2-amino-7,7-dimethyl-4-oxo-3,4,7,8-tetrahydropteridine-6-carboxamido)ethyl)(2-((((2S,3S,4R,5R)-5-(6-amino-9H-purin-9-yl)-3,4-dihydroxytetrahydrofuran-2-yl)methyl)thio)ethyl)amino)methyl)phosphonic acid] | – | 6.40 | significantly higher
CC1(C)Nc2nc(N)[nH]c(=O)c2N=C1C(=O)NCCN1CC[C@@H](SC[C@H]2O[C@@H](n3cnc4c(N)ncnc43)[C@H](O)[C@@H]2O)C[C@@H]1C(=O)O [Compound 120, (2R,4R)-1-(2-(2-amino-7,7-dimethyl-4-oxo-3,4,7,8-tetrahydropteridine-6-carboxamido)ethyl)-4-((((2S,3S,4R,5R)-5-(6-amino-9H-purin-9-yl)-3,4-dihydroxytetrahydrofuran-2-yl)methyl)thio)piperidine-2-carboxylic acid] | 6.52 | – | –
